{"source": "the kinase profiling compilation of Christmann-Franck et al. (2016)", "assay_in_all_cases": "KINOMEscan competition binding", "conditions_in_all_cases": "compound 1.0 µM", "key": {"[1]": {"test_system": "EGFR (human), P00533 [T790M/L858R]"}, "AXL (human)": {"biological_target": "AXL (human) (UniProt P30530)"}, "CAMK2A (human)": {"biological_target": "CAMK2A (human) (UniProt Q9UQM7)", "sequence (Q9UQM7 whole entry, looked up)": "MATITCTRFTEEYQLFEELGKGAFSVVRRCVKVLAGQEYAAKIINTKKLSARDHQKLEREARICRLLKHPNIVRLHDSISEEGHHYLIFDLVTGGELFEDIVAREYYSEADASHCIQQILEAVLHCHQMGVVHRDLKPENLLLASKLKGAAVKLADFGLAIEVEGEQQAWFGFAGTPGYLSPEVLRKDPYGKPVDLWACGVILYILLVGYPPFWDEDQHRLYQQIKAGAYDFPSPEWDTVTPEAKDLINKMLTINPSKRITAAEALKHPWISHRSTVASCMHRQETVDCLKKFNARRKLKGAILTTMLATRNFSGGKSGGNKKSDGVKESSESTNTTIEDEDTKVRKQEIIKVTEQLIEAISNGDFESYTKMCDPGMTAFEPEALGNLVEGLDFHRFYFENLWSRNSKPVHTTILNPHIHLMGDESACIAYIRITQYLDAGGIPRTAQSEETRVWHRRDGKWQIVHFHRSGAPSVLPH"}, "CSNK1G3 (human)": {"biological_target": "CSNK1G3 (human) (UniProt Q9Y6M4)"}, "[2]": {"test_system": "FLT3 (human), P36888 [N841I]"}, "PHKG2 (human)": {"biological_target": "PHKG2 (human) (UniProt P15735)"}, "MAPK10 (human)": {"biological_target": "MAPK10 (human) (UniProt P53779)"}, "BMPR2 (human)": {"biological_target": "BMPR2 (human) (UniProt Q13873)"}, "MARK4 (human)": {"biological_target": "MARK4 (human) (UniProt Q96L34)"}, "DMPK (human)": {"biological_target": "DMPK (human) (UniProt Q09013)"}, "[3]": {"biological_target": "JAK1 JH2 pseudokinase (human) (UniProt P23458)"}, "FGFR1 (human)": {"biological_target": "FGFR1 (human) (UniProt P11362)"}, "BMP2K (human)": {"biological_target": "BMP2K (human) (UniProt Q9NSY1)"}, "MAP3K13 (human)": {"biological_target": "MAP3K13 (human) (UniProt O43283)"}, "AKT3 (human)": {"biological_target": "AKT3 (human) (UniProt Q9Y243)"}, "[4]": {"test_system": "PIK3CA (human), P42336 [Q546K]"}, "INSR (human)": {"biological_target": "INSR (human) (UniProt P06213)", "sequence (P06213 whole entry, looked up)": "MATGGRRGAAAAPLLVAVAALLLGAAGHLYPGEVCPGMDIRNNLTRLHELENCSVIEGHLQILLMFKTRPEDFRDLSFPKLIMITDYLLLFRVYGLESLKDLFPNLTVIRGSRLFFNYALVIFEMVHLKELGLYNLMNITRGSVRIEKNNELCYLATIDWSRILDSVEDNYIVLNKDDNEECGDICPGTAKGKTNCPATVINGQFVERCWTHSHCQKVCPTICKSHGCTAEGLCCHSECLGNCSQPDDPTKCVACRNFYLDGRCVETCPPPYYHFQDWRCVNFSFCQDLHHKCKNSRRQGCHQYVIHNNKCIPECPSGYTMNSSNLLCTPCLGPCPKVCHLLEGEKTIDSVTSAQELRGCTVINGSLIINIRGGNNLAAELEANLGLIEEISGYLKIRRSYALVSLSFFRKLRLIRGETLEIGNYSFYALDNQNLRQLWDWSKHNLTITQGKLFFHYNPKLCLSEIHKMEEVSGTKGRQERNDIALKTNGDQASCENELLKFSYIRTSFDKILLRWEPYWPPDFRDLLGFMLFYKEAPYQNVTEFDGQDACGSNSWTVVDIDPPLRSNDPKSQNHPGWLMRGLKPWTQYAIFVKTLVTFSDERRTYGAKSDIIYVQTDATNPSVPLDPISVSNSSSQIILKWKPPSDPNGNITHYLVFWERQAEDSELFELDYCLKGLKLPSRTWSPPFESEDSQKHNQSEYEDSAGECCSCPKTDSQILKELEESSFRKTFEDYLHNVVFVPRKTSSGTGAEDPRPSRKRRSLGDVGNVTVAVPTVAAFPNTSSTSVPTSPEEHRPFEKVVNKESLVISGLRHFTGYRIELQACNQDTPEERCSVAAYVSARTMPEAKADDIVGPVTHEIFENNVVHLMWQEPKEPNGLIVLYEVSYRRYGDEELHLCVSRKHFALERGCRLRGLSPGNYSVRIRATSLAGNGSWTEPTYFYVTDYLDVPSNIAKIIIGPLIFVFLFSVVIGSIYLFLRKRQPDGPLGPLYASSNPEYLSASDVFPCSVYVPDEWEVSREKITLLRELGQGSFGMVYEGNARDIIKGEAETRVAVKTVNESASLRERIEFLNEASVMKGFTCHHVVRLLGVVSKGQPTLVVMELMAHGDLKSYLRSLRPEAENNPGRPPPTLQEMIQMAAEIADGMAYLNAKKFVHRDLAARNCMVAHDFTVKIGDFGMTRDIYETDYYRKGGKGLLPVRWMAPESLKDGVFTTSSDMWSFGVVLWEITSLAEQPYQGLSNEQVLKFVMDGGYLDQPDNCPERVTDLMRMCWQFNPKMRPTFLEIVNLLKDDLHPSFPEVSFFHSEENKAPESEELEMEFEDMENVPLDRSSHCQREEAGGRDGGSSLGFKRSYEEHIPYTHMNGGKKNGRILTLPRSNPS"}, "TGFBR1 (human)": {"biological_target": "TGFBR1 (human) (UniProt P36897)"}, "CSNK1E (human)": {"biological_target": "CSNK1E (human) (UniProt P49674)"}, "FYN (human)": {"biological_target": "FYN (human) (UniProt P06241)"}, "CDC42BPG (human)": {"biological_target": "CDC42BPG (human) (UniProt Q6DT37)"}, "IKBKB (human)": {"biological_target": "IKBKB (human) (UniProt O14920)"}, "FLT1 (human)": {"biological_target": "FLT1 (human) (UniProt P17948)"}, "ULK2 (human)": {"biological_target": "ULK2 (human) (UniProt Q8IYT8)"}, "STK32C (human)": {"biological_target": "STK32C (human) (UniProt Q86UX6)"}, "RIOK1 (human)": {"biological_target": "RIOK1 (human) (UniProt Q9BRS2)"}, "PIM3 (human)": {"biological_target": "PIM3 (human) (UniProt Q86V86)"}, "PRKCE (human)": {"biological_target": "PRKCE (human) (UniProt Q02156)"}, "FGFR2 (human)": {"biological_target": "FGFR2 (human) (UniProt P21802)"}, "PKN3 (M.tuberculosis)": {"biological_target": "PKN3 (M.tuberculosis) (UniProt Q6P5Z2)"}, "[5]": {"test_system": "EGFR (human), P00533 [A750P; 747-749 del]"}, "MYLK2 (human)": {"biological_target": "MYLK2 (human) (UniProt Q9H1R3)", "sequence (Q9H1R3 whole entry, looked up)": "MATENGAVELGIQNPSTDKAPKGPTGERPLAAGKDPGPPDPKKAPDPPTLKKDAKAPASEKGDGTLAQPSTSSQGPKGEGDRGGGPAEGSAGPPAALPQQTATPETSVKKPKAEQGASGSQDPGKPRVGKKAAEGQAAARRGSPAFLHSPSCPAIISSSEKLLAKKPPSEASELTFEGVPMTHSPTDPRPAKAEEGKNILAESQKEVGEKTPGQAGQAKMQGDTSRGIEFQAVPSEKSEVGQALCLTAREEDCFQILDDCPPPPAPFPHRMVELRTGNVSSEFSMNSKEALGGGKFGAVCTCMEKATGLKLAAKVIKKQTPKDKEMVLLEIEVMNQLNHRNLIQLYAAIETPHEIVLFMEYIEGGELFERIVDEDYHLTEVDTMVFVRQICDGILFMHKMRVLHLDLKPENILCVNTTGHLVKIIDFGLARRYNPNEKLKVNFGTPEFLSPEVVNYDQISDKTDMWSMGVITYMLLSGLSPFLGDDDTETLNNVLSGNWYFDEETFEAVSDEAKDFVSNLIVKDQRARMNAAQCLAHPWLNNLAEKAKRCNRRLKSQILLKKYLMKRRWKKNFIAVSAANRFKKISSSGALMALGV"}, "CDKL5 (human)": {"biological_target": "CDKL5 (human) (UniProt O76039)", "sequence (O76039 whole entry, looked up)": "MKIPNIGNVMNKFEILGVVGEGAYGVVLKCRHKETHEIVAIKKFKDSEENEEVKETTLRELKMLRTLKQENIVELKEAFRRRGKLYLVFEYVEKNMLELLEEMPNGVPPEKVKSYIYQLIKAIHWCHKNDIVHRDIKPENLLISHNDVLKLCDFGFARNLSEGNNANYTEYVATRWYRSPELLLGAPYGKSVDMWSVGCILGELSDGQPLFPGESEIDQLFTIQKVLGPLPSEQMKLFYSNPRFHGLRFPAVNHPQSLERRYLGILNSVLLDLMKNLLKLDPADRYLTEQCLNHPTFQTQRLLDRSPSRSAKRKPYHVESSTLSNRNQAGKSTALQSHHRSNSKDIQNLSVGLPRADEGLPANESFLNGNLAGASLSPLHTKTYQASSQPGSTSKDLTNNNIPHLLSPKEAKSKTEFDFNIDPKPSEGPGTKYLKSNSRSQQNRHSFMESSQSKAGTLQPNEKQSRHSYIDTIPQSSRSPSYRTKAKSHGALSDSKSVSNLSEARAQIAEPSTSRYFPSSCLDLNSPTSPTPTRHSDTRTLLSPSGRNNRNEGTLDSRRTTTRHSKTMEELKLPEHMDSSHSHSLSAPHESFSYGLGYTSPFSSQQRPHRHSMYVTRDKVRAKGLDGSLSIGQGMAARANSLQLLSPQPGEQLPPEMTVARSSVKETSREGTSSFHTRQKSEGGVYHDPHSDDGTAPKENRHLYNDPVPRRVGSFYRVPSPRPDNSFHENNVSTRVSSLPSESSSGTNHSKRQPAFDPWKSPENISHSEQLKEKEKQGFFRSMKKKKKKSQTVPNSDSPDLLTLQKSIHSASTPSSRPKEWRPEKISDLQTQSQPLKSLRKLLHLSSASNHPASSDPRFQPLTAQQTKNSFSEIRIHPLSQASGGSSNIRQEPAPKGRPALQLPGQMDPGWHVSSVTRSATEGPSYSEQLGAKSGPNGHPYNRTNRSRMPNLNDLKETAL"}, "MAP4K5 (human)": {"biological_target": "MAP4K5 (human) (UniProt Q9Y4K4)"}, "YSK4 (human)": {"biological_target": "YSK4 (human) (UniProt Q56UN5)"}, "GRK7 (human)": {"biological_target": "GRK7 (human) (UniProt Q8WTQ7)"}, "GAK (human)": {"biological_target": "GAK (human) (UniProt O14976)", "sequence (O14976 whole entry, looked up)": "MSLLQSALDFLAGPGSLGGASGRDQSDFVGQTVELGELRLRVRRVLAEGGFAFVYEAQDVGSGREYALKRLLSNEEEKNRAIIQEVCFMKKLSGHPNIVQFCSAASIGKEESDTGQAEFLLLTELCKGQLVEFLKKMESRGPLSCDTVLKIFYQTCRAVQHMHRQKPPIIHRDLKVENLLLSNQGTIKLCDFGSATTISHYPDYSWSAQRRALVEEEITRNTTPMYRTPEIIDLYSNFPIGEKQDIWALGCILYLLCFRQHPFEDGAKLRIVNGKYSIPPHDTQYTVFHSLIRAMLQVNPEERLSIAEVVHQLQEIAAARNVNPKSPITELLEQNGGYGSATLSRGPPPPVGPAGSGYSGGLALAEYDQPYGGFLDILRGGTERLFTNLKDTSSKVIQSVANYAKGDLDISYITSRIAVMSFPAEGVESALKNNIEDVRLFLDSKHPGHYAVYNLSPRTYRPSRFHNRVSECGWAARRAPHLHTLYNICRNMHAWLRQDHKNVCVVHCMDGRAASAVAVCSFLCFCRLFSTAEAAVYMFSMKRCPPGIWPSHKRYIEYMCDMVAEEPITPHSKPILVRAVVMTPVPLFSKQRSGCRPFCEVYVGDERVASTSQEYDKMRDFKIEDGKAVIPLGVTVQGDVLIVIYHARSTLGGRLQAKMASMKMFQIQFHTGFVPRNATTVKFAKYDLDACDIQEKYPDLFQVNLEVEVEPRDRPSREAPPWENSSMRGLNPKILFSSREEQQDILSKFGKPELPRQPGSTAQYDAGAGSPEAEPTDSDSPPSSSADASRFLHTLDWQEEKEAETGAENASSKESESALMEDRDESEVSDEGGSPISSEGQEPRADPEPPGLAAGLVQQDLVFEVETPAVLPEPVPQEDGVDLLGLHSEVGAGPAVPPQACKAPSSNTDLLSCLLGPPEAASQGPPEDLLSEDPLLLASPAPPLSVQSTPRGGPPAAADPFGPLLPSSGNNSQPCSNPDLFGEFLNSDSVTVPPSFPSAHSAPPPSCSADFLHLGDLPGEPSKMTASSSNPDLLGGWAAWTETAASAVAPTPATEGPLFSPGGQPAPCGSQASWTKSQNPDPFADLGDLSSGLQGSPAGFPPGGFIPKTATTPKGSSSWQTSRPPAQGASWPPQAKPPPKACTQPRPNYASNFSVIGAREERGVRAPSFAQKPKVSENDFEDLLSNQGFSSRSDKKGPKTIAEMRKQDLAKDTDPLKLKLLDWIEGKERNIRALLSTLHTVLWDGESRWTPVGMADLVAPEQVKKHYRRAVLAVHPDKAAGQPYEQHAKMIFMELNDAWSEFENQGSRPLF"}, "MAP3K11 (human)": {"biological_target": "MAP3K11 (human) (UniProt Q16584)"}, "MAP3K12 (human)": {"biological_target": "MAP3K12 (human) (UniProt Q12852)"}, "NEK9 (human)": {"biological_target": "NEK9 (human) (UniProt Q8TD19)"}, "STK39 (human)": {"biological_target": "STK39 (human) (UniProt Q9UEW8)"}, "EGFR (human)": {"biological_target": "EGFR (human) (UniProt P00533)"}, "AURKB (human)": {"biological_target": "AURKB (human) (UniProt Q96GD4)"}}}
{"smiles": "COCCNCCCn1c(C(=O)CF)c(-c2ccc(C)cc2)c2c(N)ncnc21", "values": [{"measurement": "kinase still bound, per cent of control", "setting": "[1]", "value": 100, "unit": "%"}, {"measurement": "kinase still bound, per cent of control", "setting": "AXL (human)", "value": 81, "unit": "%"}, {"measurement": "kinase still bound, per cent of control", "setting": "CAMK2A (human)", "value": 78, "unit": "%"}, {"measurement": "kinase still bound, per cent of control", "setting": "CSNK1G3 (human)", "value": 98, "unit": "%"}, {"measurement": "kinase still bound, per cent of control", "setting": "[2]", "value": 65, "unit": "%"}, {"measurement": "kinase still bound, per cent of control", "setting": "PHKG2 (human)", "value": 100, "unit": "%"}, {"measurement": "kinase still bound, per cent of control", "setting": "MAPK10 (human)", "value": 100, "unit": "%"}, {"measurement": "kinase still bound, per cent of control", "setting": "BMPR2 (human)", "value": 72, "unit": "%"}, {"measurement": "kinase still bound, per cent of control", "setting": "MARK4 (human)", "value": 74, "unit": "%"}, {"measurement": "kinase still bound, per cent of control", "setting": "DMPK (human)", "value": 84, "unit": "%"}, {"measurement": "kinase still bound, per cent of control", "setting": "[3]", "value": 100, "unit": "%"}, {"measurement": "kinase still bound, per cent of control", "setting": "FGFR1 (human)", "value": 98, "unit": "%"}, {"measurement": "kinase still bound, per cent of control", "setting": "BMP2K (human)", "value": 94, "unit": "%"}, {"measurement": "kinase still bound, per cent of control", "setting": "MAP3K13 (human)", "value": 92, "unit": "%"}, {"measurement": "kinase still bound, per cent of control", "setting": "AKT3 (human)", "value": 86, "unit": "%"}, {"measurement": "kinase still bound, per cent of control", "setting": "[4]", "value": 100, "unit": "%"}, {"measurement": "kinase still bound, per cent of control", "setting": "INSR (human)", "value": 84, "unit": "%"}, {"measurement": "kinase still bound, per cent of control", "setting": "TGFBR1 (human)", "value": 89, "unit": "%"}, {"measurement": "kinase still bound, per cent of control", "setting": "CSNK1E (human)", "value": 87, "unit": "%"}, {"measurement": "kinase still bound, per cent of control", "setting": "FYN (human)", "value": 87, "unit": "%"}, {"measurement": "kinase still bound, per cent of control", "setting": "CDC42BPG (human)", "value": 84, "unit": "%"}, {"measurement": "kinase still bound, per cent of control", "setting": "IKBKB (human)", "value": 95, "unit": "%"}, {"measurement": "kinase still bound, per cent of control", "setting": "FLT1 (human)", "value": 96, "unit": "%"}, {"measurement": "kinase still bound, per cent of control", "setting": "ULK2 (human)", "value": 90, "unit": "%"}, {"measurement": "kinase still bound, per cent of control", "setting": "STK32C (human)", "value": 100, "unit": "%"}, {"measurement": "kinase still bound, per cent of control", "setting": "RIOK1 (human)", "value": 69, "unit": "%"}, {"measurement": "kinase still bound, per cent of control", "setting": "PIM3 (human)", "value": 100, "unit": "%"}, {"measurement": "kinase still bound, per cent of control", "setting": "PRKCE (human)", "value": 100, "unit": "%"}, {"measurement": "kinase still bound, per cent of control", "setting": "FGFR2 (human)", "value": 100, "unit": "%"}, {"measurement": "kinase still bound, per cent of control", "setting": "PKN3 (M.tuberculosis)", "value": 100, "unit": "%"}, {"measurement": "kinase still bound, per cent of control", "setting": "[5]", "value": 67, "unit": "%"}, {"measurement": "kinase still bound, per cent of control", "setting": "MYLK2 (human)", "value": 95, "unit": "%"}, {"measurement": "kinase still bound, per cent of control", "setting": "CDKL5 (human)", "value": 100, "unit": "%"}, {"measurement": "kinase still bound, per cent of control", "setting": "MAP4K5 (human)", "value": 86, "unit": "%"}, {"measurement": "kinase still bound, per cent of control", "setting": "YSK4 (human)", "value": 100, "unit": "%"}, {"measurement": "kinase still bound, per cent of control", "setting": "GRK7 (human)", "value": 100, "unit": "%"}, {"measurement": "kinase still bound, per cent of control", "setting": "GAK (human)", "value": 100, "unit": "%"}, {"measurement": "kinase still bound, per cent of control", "setting": "MAP3K11 (human)", "value": 100, "unit": "%"}, {"measurement": "kinase still bound, per cent of control", "setting": "MAP3K12 (human)", "value": 94, "unit": "%"}, {"measurement": "kinase still bound, per cent of control", "setting": "NEK9 (human)", "value": 99, "unit": "%"}, {"measurement": "kinase still bound, per cent of control", "setting": "STK39 (human)", "value": 100, "unit": "%"}, {"measurement": "kinase still bound, per cent of control", "setting": "EGFR (human)", "value": 96, "unit": "%"}, {"measurement": "kinase still bound, per cent of control", "setting": "AURKB (human)", "value": 62, "unit": "%"}]}
